Results reported in patent US8486464B2, “Herbal composition for angina pectoris, method to prepare same and uses thereof” (Tasly Pharmaceutical Group Co. Ltd., priority 2000, dated 2013).
Read-outs that look alike come from different tables or passages of the source. Marks after values point to notes of the source that are not given here.

Key:
cAMP [1] = test: cAMP content in rat blood plasma; type: in vivo; settings: Aminophylline 30 mg/kg, DSP 50 mg/kg
Description: • 6. Effects on cAMP content in rat blood plasma. Blood cAMP content was tested by radioimmunoassay.

cAMP [2] = test: cAMP content in rabbit blood platelets; type: in vivo; settings: per mg protein; Aminophylline 0.6 mg/kg, DSP 1.0 mg/kg
Description: • 5. Effects on cAMP content in rabbit blood platelets. cAMP content is tested by radioimmunoassay. Protein content is measured by the Hartree Method.

serum lipoprotein = test: High-fats rabbits: lipoprotein in blood serum; type: in vivo; settings: DSP 4 g/kg/day, Simvastatin 1 mg/kg/day
Description: (1) Normal control group (8 rabbits) normal feeding; (2) High-fats group: High-fats feeding. All were fed for 4 weeks. Weight and lipoprotein in the blood were measured. […] High-fats control group, 2. High-dosage of DSP group (4 g dosage/kg/day), 3. […] All are given distilled water except those with special prescriptions and ends after 12 weeks testing.

SOD, MDA = test: High-fats rabbits: SOD activity and MDA content in blood serum and liver; type: in vivo; settings: 8 weeks, DSP 4 g raw medicine/kg/d, Simvastatin 1 mg/kg/d
Description: Method. The experimental groups were divided into: (1) Normal control group. Normal feeding; (2) High-fats feeding group: high-fats feeding.
All were fed for 4 weeks. weight and lipoprotein content in the blood were measured. […] Medicine was given to the rabbits through the stomach, according to prescription. The same volume of distilled water was given to the normal control group and high-fats feeding group. Testing ended after 12 weeks.

liver TG = test: High-fats rabbits: liver TG and liver coefficient; type: in vivo; settings: DSP 4 g/kg, Simvastatin 1 mg/kg
Description: (§1) 1.1 Experimental Groups. (1) Normal control group (8 rabbits) normal feeding; (2) High-fats group: High-fats feeding. All were fed for 4 weeks. Weight and lipoprotein in the blood were measured. The high-fats group was divided into 4 sub-groups (12 rabbits in each sub-group). 1. High-fats control group, 2. High-dosage of DSP group (4 g dosage/kg/day), 3. Low-dosage DSP group (2 g dosage/kg/day), and 4. […] All are given distilled water except those with special prescriptions and ends after 12 weeks testing.

aorta AS = test: High-fats rabbits: aortic lesion and lipoprotein content in aorta; type: in vivo; settings: 8 weeks, DSP 4 g/kg/Day, Simvastatin 1 mg/kg/Day
Description: as §1
1.2 Experimental Methods and Standards. (1) Examination of Aortic Lesion. Drugs were given to the animals for 8 weeks, and then the animals were killed. The aortas were removed and the unnecessary membranes and fats discarded. The aortas were cut open along the mid line. One-fifth of the aorta was removed for lipid examination. […] The percentage of the lesion part was calculated, and a grading was given. […] The average thickness of the interior membrane spot plates was measured by microscopic parameter. […] The number of blood vessels with spot plates in the coronary artery and the lesion percentage (lesion percentage=the number of blood vessels with lesion/the total number of blood vessels in each transect X100%) were observed, calculated and graded according to the blocking of the blood vessels with spot plates. The average points were calculated by accumulation.

blood stasis = test: Blood flow (Hb, Lb, P, air flow), DSP vs aspirin; type: in vivo, human; parameters: unit not given here
From the text: Hemorrhage at the atherosclerotic lesions induces platelet activation, coronary thrombosis and blood stasis resulting in impaired blood flow. Thus to improve blood flow, chronic administration of the platelet-activation inhibitor aspirin is recommended for patients with angina. The efficacy of DSP and aspirin improving blood flow was compared by evaluating [Hb, Lb, P and air flow]. DSP improves blood flow as efficiently as aspirin. […].

thrombosis = test: Experimental thrombosis in rats (Umetsu method); type: in vivo; settings: experimental thrombo-formation
From the text: • 3. Effects on experimental thrombosis in rats. The Umetsu method is used to carry out the experiment.

arterial IMT = test: Hyperlipidemia, DSP vs aspirin: arterial IMT; type: in vivo, human
Description: (§2) 1.1 Sample. 53 patients were divided into 2 groups, at random: 25 patients in Treatment group (DSP group), and 28 patients in Control group (aspirin group).
(§3) The medication lasted for 6 months. 50 mg enteric aspirin was given to the Control group, 1 time/day orally.
(§4) 1.3 Standard. a) Measurement of IMT (Arterial tunica intima-tunica media). The horizontal and vertical transactions of the whole-length aorta, carotis communis, exterior artery, and subclavial artery were checked 1, 2, 3, and 6 months after treatment. The thickest part of the IMT was measured and recorded. b) Blood flow included whole blood high-viscosity (hHb), whole blood low-viscosity (hLb), plasma viscosity (hP), Aggregation Index of Red blood cells (AIR) etc. c) Measurement of blood lipoprotein included Total blood Cholesterol (TC) and Triglycerides (TG). D) Statistical treatment by matching t statistic testing.

blood viscosity = test: Hyperlipidemia, DSP vs aspirin: blood flow; type: in vivo, human
Description: as §2, §3, §4

cardiac arrhythmia = test: Cardiac arrhythmia caused by exogenous free radicals, Langendorff rat heart; parameters: species or system Wistar rat; settings: 1 mg/L verapamil; 50 mg/L DSP; free radicals alone 100%
Description: Langendorff perfusion device was used to pour ferrous sulfate (0.25 mmol/L)/citrate (1.0 mmol/L) into the Wistar rat's artificial heart. The model of free radicals causing heart rhythm irregularity was replicated to observe the effects of DSP.
(1) Blank group (Normal control). Reperfused with perfusion solution for 45 mins continuously. The change in electrocardiographic pattern was observed.
(2) SP group. DSP was added in 50 mg/L of perfusion solution and perfused for 45 mins continuously. The change in electrocardiographic pattern was observed.
(3) Free-radical-damaging group (Free radicals). After pre-perfusing the artificial heart for 15 mins, it was reperfused with perfusion solution containing ferrous sulfate (0.25 mmol/L)/citrate (1.0 mmol/L) for 30 mins continuously. The change in electrocardiographic pattern was observed.
(4) DSP-protected group (DSP+free radicals): DSP was added into 50 mg/L of perfusion solution and pre-perfused for 15 mins. Ferrous sulfate (0.25 mmol/L/citrate (1.0 mmol/L) was added to the perfusion solution and then infuse for 30 mins continuously. The change in electrocardiographic pattern was observed.
(5) Verapamil-protected group (verapamil+free radicals). […] of verapamil was added to the perfusion solution and preperfused for 15 mins. […]

From the text for insulin: (§5) Method. The 80 patients were divided into 2 groups: the Control group, with normal treatment, and the DSP group, with 10 DSP tablets, 3 times/day. Testing lasted 4 weeks.
From the text for plasma ET: as §5

`Cn1c(=O)c2[nH]cnc2n(C)c1=O` [Aminophylline] was tested, and the “blood plasma cAMP content” value (cAMP [1]; 30 min after treatment) was 20.7 ± 3.2 Pmol/ml plasma, the “blood plasma cAMP content” value (cAMP [1]; 60 min after treatment) was 21.1 ± 3.8 Pmol/ml plasma and the “cAMP content in rabbit platelets” value (cAMP [2]) was 15.4 ± 3.9 pmol/mg.
For `CCOC(=O)C1=C(COCCN)NC(C)=C(C(=O)OC)C1c1ccccc1Cl` (centres unmarked) [Amlodipine], the Blood glucose (insulin; 60 min, after treatment) was 9.76 ± 0.52 mmol, the Blood insulin (insulin; 60 min, after treatment) was 121.65 ± 1.89 mU/L and the Blood glucose (insulin; 60 min, before treatment) was 9.86 ± 0.65 mmol. It also gave a Blood insulin (insulin; 60 min, before treatment) of 122.01 ± 1.91 mU/L, a Blood glucose (insulin; 120 min, after treatment) of 8.01 ± 0.76 mmol and a Blood insulin (insulin; 120 min, after treatment) of 92.56 ± 1.66 mU/L. It also gave a Blood glucose (insulin; 120 min, before treatment) of 7.69 ± 0.81 mmol, a Blood insulin (insulin; 120 min, before treatment) of 91.62 ± 1.96 mU/L and a Blood glucose (insulin; Empty, after treatment) of 5.27 ± 0.59 mmol. The Blood insulin (insulin; Empty, after treatment) was 25.31 ± 1.73 mU/L, the Blood glucose (insulin; Empty, before treatment) was 5.19 ± 0.56 mmol and the Blood insulin (insulin; Empty, before treatment) was 25.34 ± 1.74 mU/L. The “Plasma ET” value (plasma ET; after treatment (4 weeks)) was 42.6 ± 4.78 ng/L and the “Plasma ET” value (plasma ET; before treatment) was 57.2 ± 7.31 ng/L.
For `CCC(C)(C)C(=O)O[C@H]1C[C@@H](C)C=C2C=C[C@H](C)[C@H](CC[C@@H]3C[C@@H](O)CC(=O)O3)[C@H]21` [Simvastatin], the “LDC-C, blood serum” value (serum lipoprotein; 2 weeks after dosage) was 19.54 ± 5.71 mmol/L, the “TC, blood serum” value (serum lipoprotein; 2 weeks after dosage) was 27.06 ± 4.46 mmol/L and the “TC/HDL-C, blood serum” value (serum lipoprotein; 2 weeks after dosage) was 32.29 ± 7.39. For the same compound, the “TG, blood serum” value (serum lipoprotein; 2 weeks after dosage) was 1.85 ± 0.55 mmol/L, the “VLDC-C, blood serum” value (serum lipoprotein; 2 weeks after dosage) was 6.66 ± 1.65 mmol/L and the “LDC-C, blood serum” value (serum lipoprotein; 4 weeks after dosage) was 18.22 ± 3.37 mmol/L. For the same compound, the “TC, blood serum” value (serum lipoprotein; 4 weeks after dosage) was 26.1 ± 3.03 mmol/L, the “TC/HDL-C, blood serum” value (serum lipoprotein; 4 weeks after dosage) was 19.6 ± 4.38 and the “TG, blood serum” value (serum lipoprotein; 4 weeks after dosage) was 1.80 ± 0.31 mmol/L. For the same compound, the “VLDC-C, blood serum” value (serum lipoprotein; 4 weeks after dosage) was 6.54 ± 0.74 mmol/L, the “LDC-C, blood serum” value (serum lipoprotein; 8 weeks after dosage) was 17.78 ± 5.69 mmol/L and the “TC, blood serum” value (serum lipoprotein; 8 weeks after dosage) was 26.3 ± 4.40 mmol/L. The “TC/HDL-C, blood serum” value (serum lipoprotein; 8 weeks after dosage) was 22.3 ± 6.54, the “TG, blood serum” value (serum lipoprotein; 8 weeks after dosage) was 2.70 ± 0.77 mmol/L and the “VLDC-C, blood serum” value (serum lipoprotein; 8 weeks after dosage) was 7.30 ± 2.05 mmol/L. For the same compound, the “LDC-C, blood serum” value (serum lipoprotein; A/fter dosage) was 19.69 ± 8.33 mmol/L, the “TC, blood serum” value (serum lipoprotein; A/fter dosage) was 26.92 ± 7.72 mmol/L and the “TC/HDL-C, blood serum” value (serum lipoprotein; A/fter dosage) was 31.68 ± 10.14. For the same compound, the “TG, blood serum” value (serum lipoprotein; A/fter dosage) was 2.04 ± 1.00 mmol/L, the “VLDC-C, blood serum” value (serum lipoprotein; A/fter dosage) was 6.35 ± 1.42 mmol/L and the “LDC-C, blood serum” value (serum lipoprotein; B/f testing) was 0.87 ± 0.21 mmol/L. The “TC, blood serum” value (serum lipoprotein; B/f testing) was 2.27 ± 0.18 mmol/L, the “TC/HDL-C, blood serum” value (serum lipoprotein; B/f testing) was 2.72 ± 0.85 and the “TG, blood serum” value (serum lipoprotein; B/f testing) was 0.72 ± 0.15 mmol/L. For the same compound, the “VLDC-C, blood serum” value (serum lipoprotein; B/f testing) was 0.51 ± 0.27 mmol/L, the “MDA, blood serum” value (SOD, MDA) was 5.63 ± 1.30 nmol/mL and the “SOD, Liver” value (SOD, MDA) was 11.62 ± 0.38*** 10^3 u/g tissue weight. The “SOD, blood serum” value (SOD, MDA) was 816.7 ± 77.2 u/ml, the “Liver Coefficient” value (liver TG) was 5.16 ± 0.60 g/100 g weight and the “TC content in aorta” value (aorta AS) was 4.93 ± 2.62.
`CC(=O)Oc1ccccc1C(=O)O` [aspirin] gave an Air flow (blood stasis; Post-) of 1.40 ± 0.10, a Hb (blood stasis; Post-) of 4.28 ± 1.07 and an LB (blood stasis; Post-) of 8.21 ± 0.3. For the same compound, the P (blood stasis; Post-) was 1.67 ± 0.7, the Air flow (blood stasis; Pre-) was 1.82 ± 0.17 and the LB (blood stasis; Pre-) was 10.38 ± 1.96. The P (blood stasis; Pre-) was 1.89 ± 0.12, the Hb (blood stasis; Pre-, 25 patients DSP, 28 aspirin) was 6.12 ± 1.56 and the Average aggregation percentage (thrombosis; Aspirin 30, DSP 50) was 10.6 ± 2.1. For the same compound, the Inhibition % (thrombosis; Aspirin 30, DSP 50 (head: g/kg)) was 49.2%, the IMT (arterial IMT; after treatment (6 months)) was 2.1 ± 0.7 mm and the IMT (arterial IMT; before treatment) was 2.0 ± 0.8 mm. The AIR (blood viscosity; after treatment (6 months)) was 1.40 ± 0.10, the “η Hb” value (blood viscosity; after treatment (6 months)) was 4.28 ± 1.07 mpa · s and the “η Lb” value (blood viscosity; after treatment (6 months)) was 8.21 ± 1.03 mpa · s. The “η P” value (blood viscosity; after treatment (6 months)) was 1.67 ± 0.07 mpa · s, the AIR (blood viscosity; before treatment) was 1.82 ± 0.17 and the “η Hb” value (blood viscosity; before treatment) was 6.12 ± 1.56 mpa · s. The “η Lb” value (blood viscosity; before treatment) was 10.38 ± 1.96 mpa · s and the “η P” value (blood viscosity; before treatment) was 1.89 ± 0.12 mpa · s.
With `COc1ccc(CCN(C)CCCC(C#N)(c2ccc(OC)c(OC)c2)C(C)C)cc1OC` (centres unmarked) [verapamil] the “cardiac arrhythmia (irregularity) percentage” value (cardiac arrhythmia) was 71.4%.
